Measurements published in patent publication US8927717B1, “Thiochromeno[2,3-c]quinolin-12-one derivatives, preparation method and application thereof” (National Defense Medical Center, priority 2014, dated 2015).

How the values were obtained:
Type in all cases: cell-based
K-562 = settings: 10^−5 molar; for Growth percent K-562: Leukemia, 48 hours, SRB
MOLT-4 = settings: 10^−5 molar; for Growth percent MOLT-4: Leukemia, 48 hours, SRB
SR = settings: 10^−5 molar; for Growth percent SR: Leukemia, 48 hours, SRB
A549/ATCC = settings: 10^−5 molar; for Growth percent A549/ATCC: Non-small cell lung cancer, 48 hours, SRB
HOP-62 = settings: 10^−5 molar; for Growth percent HOP-62: Non-small cell lung cancer, 48 hours, SRB
NCI-H226 = settings: 10^−5 molar; for Growth percent NCI-H226: Non-small cell lung cancer, 48 hours, SRB
NCI-H23 = settings: 10^−5 molar; for Growth percent NCI-H23: Non-small cell lung cancer, 48 hours, SRB
NCI-H522 = settings: 10^−5 molar; for Growth percent NCI-H522: Non-small cell lung cancer, 48 hours, SRB
HCT-15 = settings: 10^−5 molar; for Growth percent HCT-15: Colon cancer, 48 hours, SRB
HT29 = settings: 10^−5 molar; for Growth percent HT29: Colon cancer, 48 hours, SRB
KM12 = assay: cells; settings: 10^−5 molar; for Growth percent KM12: Colon cancer, 48 hours, SRB
SW-620 = settings: 10^−5 molar; for Growth percent SW-620: Colon cancer, 48 hours, SRB
SF-268 = settings: 10^−5 molar; for Growth percent SF-268: CNS cancer, 48 hours, SRB
SF-295 = settings: 10^−5 molar; for Growth percent SF-295: CNS cancer, 48 hours, SRB
SNB-19 = settings: 10^−5 molar; for Growth percent SNB-19: CNS cancer, 48 hours, SRB
SNB-75 = settings: 10^−5 molar; for Growth percent SNB-75: CNS cancer, 48 hours, SRB
U251 = settings: 10^−5 molar; for Growth percent U251: CNS cancer, 48 hours, SRB
LOX IMVI = settings: 10^−5 molar; for Growth percent LOX IMVI: Melanoma, 48 hours, SRB
MALME-3M = settings: 10^−5 molar; for Growth percent MALME-3M: Melanoma, 48 hours, SRB
MDA-MB-435 = settings: 10^−5 molar; for Growth percent MDA-MB-435: Melanoma, 48 hours, SRB
SK-MEL-28 = settings: 10^−5 molar; for Growth percent SK-MEL-28: Melanoma, 48 hours, SRB
UACC-62 = settings: 10^−5 molar; for Growth percent UACC-62: Melanoma, 48 hours, SRB
OVCAR-5 = settings: 10^−5 molar; for Growth percent OVCAR-5: Ovarian cancer, 48 hours, SRB
OVCAR-8 = settings: 10^−5 molar; for Growth percent OVCAR-8: Ovarian cancer, 48 hours, SRB
NCI/ADR-RES = settings: 10^−5 molar; for Growth percent NCI/ADR-RES: Ovarian cancer, 48 hours, SRB
786-0 = settings: 10^−5 molar; for Growth percent 786-0: Renal cancer, 48 hours, SRB
A498 = settings: 10^−5 molar; for Growth percent A498: Renal cancer, 48 hours, SRB
ACHN = settings: 10^−5 molar; for Growth percent ACHN: Renal cancer, 48 hours, SRB
RXF 393 = settings: 10^−5 molar; for Growth percent RXF 393: Renal cancer, 48 hours, SRB
SN12C = settings: 10^−5 molar; for Growth percent SN12C: Renal cancer, 48 hours, SRB
TK-10 = settings: 10^−5 molar; for Growth percent TK-10: Renal cancer, 48 hours, SRB
UO-31 = settings: 10^−5 molar; for Growth percent UO-31: Renal cancer, 48 hours, SRB
DU-145 = settings: 10^−5 molar; for Growth percent DU-145: Prostate cancer, 48 hours, SRB
MCF7 = settings: 10^−5 molar; for Growth percent MCF7 (Table 2: MCF): Breast cancer, 48 hours, SRB
MDA-MB-231/ATCC = settings: 10^−5 molar; for Growth percent MDA-MB-231/ATCC: Breast cancer, 48 hours, SRB
HS 578T = settings: 10^−5 molar; for Growth percent HS 578T: Breast cancer, 48 hours, SRB
T-47D = settings: 10^−5 molar; for Growth percent T-47D: Breast cancer, 48 hours, SRB
MDA-MB-486 = settings: 10^−5 molar; for Growth percent MDA-MB-486: Breast cancer, 48 hours, SRB
60 cancer cell lines = assay: NCI 60-cell screen, SRB, whole panel (mean, delta, range); settings: 10^−5 molar
[1] = delta over the cell panel, 48 hours, SRB
[2] = mean over the cell panel, 48 hours, SRB
[3] = range over the cell panel, 48 hours, SRB

Compound: CC(C)CC(C)Nc1nc2ccccc2c2c(=O)c3cc(Cl)ccc3sc12 (stereo not drawn) [Compound N13, 10-Chloro-6-((4-methylpentan-2-yl)amino)-12H-thiochromeno[2,3-c]quinolin-12-one]
- Growth percent K-562 (K-562): 106.64%
- Growth percent MOLT-4 (MOLT-4): 93.68%
- Growth percent SR (SR): 97.29%
- Growth percent A549/ATCC (A549/ATCC): 101.98%
- Growth percent HOP-62 (HOP-62): 88.69%
- Growth percent NCI-H226 (NCI-H226): 87.55%
- Growth percent NCI-H23 (NCI-H23): 95.10%
- Growth percent NCI-H522 (NCI-H522): 102.30%
- Growth percent HCT-15 (HCT-15): 96.97%
- Growth percent HT29 (HT29): 121.02%
- Growth percent KM12 (KM12): 105.66%
- Growth percent SW-620 (SW-620): 92.80%
- Growth percent SF-268 (SF-268): 105.52%
- Growth percent SF-295 (SF-295): 95.92%
- Growth percent SNB-19 (SNB-19): 106.79%
- Growth percent SNB-75 (SNB-75): 85.02%
- Growth percent U251 (U251): 105.12%
- Growth percent LOX IMVI (LOX IMVI): 98.90%
- Growth percent MALME-3M (MALME-3M): 95.93%
- Growth percent MDA-MB-435 (MDA-MB-435): 108.08%
- Growth percent SK-MEL-28 (SK-MEL-28): 106.87%
- Growth percent UACC-62 (UACC-62): 96.09%
- Growth percent OVCAR-5 (OVCAR-5): 101.36%
- Growth percent OVCAR-8 (OVCAR-8): 92.79%
- Growth percent NCI/ADR-RES (NCI/ADR-RES): 98.47%
- Growth percent 786-0 (786-0): 99.74%
- Growth percent A498 (A498): 75.01%
- Growth percent ACHN (ACHN): 91.24%
- Growth percent RXF 393 (RXF 393): 98.67%
- Growth percent SN12C (SN12C): 95.14%
- Growth percent TK-10 (TK-10): 123.23%
- Growth percent UO-31 (UO-31): 78.64%
- Growth percent DU-145 (DU-145): 113.48%
- Growth percent MCF7 (Table 2: MCF) (MCF7): 73.82%
- Growth percent MDA-MB-231/ATCC (MDA-MB-231/ATCC): 84.22%
- Growth percent HS 578T (HS 578T): 89.33%
- Growth percent T-47D (T-47D): 73.76%
- Growth percent MDA-MB-486 (MDA-MB-486): 96.02%
- Growth percent, Delta (60 cancer cell lines; [1]): 22.57%
- Growth percent, Mean (60 cancer cell lines; [2]): 96.33%
- Growth percent, Range (60 cancer cell lines; [3]): 49.47%

Compound: CN(C)CCCNc1nc2ccccc2c2c(=O)c3cc(Cl)ccc3sc12 [Compound N17, 10-Chloro-6-((3-(dimethylamino)propyl)amino)-12H-thiochromeno[2,3-c]quinolin-12-one]
- Growth percent (K-562; K-562): 47.53%
- Growth percent (MOLT-4; MOLT-4): 70.71%
- Growth percent (SR; SR): 48.48%
- Growth percent (A549/ATCC; A549/ATCC): 81.19%
- Growth percent (HOP-62; HOP-62): 86.73%
- Growth percent (NCI-H226; NCI-H226): 81.01%
- Growth percent (NCI-H23; NCI-H23): 100.25%
- Growth percent (NCI-H522; NCI-H522): 98.76%
- Growth percent (HCT-15; HCT-15): 80.92%
- Growth percent (HT29; HT29): 90.98%
- Growth percent (KM12; KM12): 97.75%
- Growth percent (SW-620; SW-620): 91.74%
- Growth percent (SF-268; SF-268): 87.67%
- Growth percent (SF-295; SF-295): 95.14%
- Growth percent (SNB-19; SNB-19): 97.83%
- Growth percent (SNB-75; SNB-75): 60.99%
- Growth percent (U251; U251): 84.19%
- Growth percent (LOX IMVI; LOX IMVI): 66.16%
- Growth percent (MALME-3M; MALME-3M): 100.91%
- Growth percent (MDA-MB-435; MDA-MB-435): 93.04%
- Growth percent (SK-MEL-28; SK-MEL-28): 99.63%
- Growth percent (UACC-62; UACC-62): 102.63%
- Growth percent (OVCAR-5; OVCAR-5): 106.26%
- Growth percent (OVCAR-8; OVCAR-8): 98.38%
- Growth percent (NCI/ADR-RES; NCI/ADR-RES): 96.94%
- Growth percent (786-0; 786-0): 93.30%
- Growth percent (A498; A498): 78.57%
- Growth percent (ACHN; ACHN): 86.20%
- Growth percent (RXF 393; RXF 393): 76.32%
- Growth percent (SN12C; SN12C): 83.63%
- Growth percent (TK-10; TK-10): 108.89%
- Growth percent (UO-31; UO-31): 72.62%
- Growth percent (DU-145; DU-145): 97.29%
- Growth percent (MCF7; MCF7): 51.20%
- Growth percent (MDA-MB-231/ATCC; MDA-MB-231/ATCC): 73.39%
- Growth percent (HS 578T; HS 578T): 87.67%
- Growth percent (T-47D; T-47D): 79.82%
- Growth percent (MDA-MB-486; MDA-MB-486): 43.26%
- Growth percent, Delta (60 cancer cell lines; delta over panel): 44.56%
- Growth percent, Mean (60 cancer cell lines; mean over panel): 85.32%
- Growth percent, Range (60 cancer cell lines; range over panel): 68.13%

Compound: O=c1c2cc(Cl)ccc2sc2c(NCCO)nc3ccccc3c12 [Compound N9, 10-Chloro-6-(2-ethanolamino)-12H-thiochromeno[2,3-c]quinolin-12-one]
- Growth percent K-562 (K-562): 68.23%
- Growth percent MOLT-4 (MOLT-4): 78.76%
- Growth percent SR (SR): 60.44%
- Growth percent A549/ATCC (A549/ATCC): 80.72%
- Growth percent HOP-62 (HOP-62): 81.90%
- Growth percent NCI-H226 (NCI-H226): 83.55%
- Growth percent NCI-H23 (NCI-H23): 86.06%
- Growth percent NCI-H522 (NCI-H522): 76.94%
- Growth percent HCT-15 (HCT-15): 78.61%
- Growth percent HT29 (HT29): 87.36%
- Growth percent KM12 (KM12): 91.93%
- Growth percent SW-620 (SW-620): 97.18%
- Growth percent SF-268 (SF-268): 95.06%
- Growth percent SF-295 (SF-295): 92.50%
- Growth percent SNB-19 (SNB-19): 90.96%
- Growth percent SNB-75 (SNB-75): 90.05%
- Growth percent U251 (U251): 84.10%
- Growth percent LOX IMVI (LOX IMVI): 86.96%
- Growth percent MALME-3M (MALME-3M): 104.86%
- Growth percent MDA-MB-435 (MDA-MB-435): 94.98%
- Growth percent SK-MEL-28 (SK-MEL-28): 100.76%
- Growth percent UACC-62 (UACC-62): 76.52%
- Growth percent OVCAR-5 (OVCAR-5): 101.56%
- Growth percent OVCAR-8 (OVCAR-8): 78.13%
- Growth percent NCI/ADR-RES (NCI/ADR-RES): 91.54%
- Growth percent 786-0 (786-0): 104.43%
- Growth percent A498 (A498): 65.78%
- Growth percent ACHN (ACHN): 82.25%
- Growth percent RXF 393 (RXF 393): 92.81%
- Growth percent SN12C (SN12C): 92.52%
- Growth percent TK-10 (TK-10): 78.14%
- Growth percent UO-31 (UO-31): 51.97%
- Growth percent DU-145 (DU-145): 102.77%
- Growth percent MCF7 (Table 2: MCF) (MCF7): 29.66%
- Growth percent MDA-MB-231/ATCC (MDA-MB-231/ATCC): 66.62%
- Growth percent HS 578T (HS 578T): 83.24%
- Growth percent T-47D (T-47D): 74.45%
- Growth percent MDA-MB-486 (MDA-MB-486): 39.59%
- Growth percent, Delta (60 cancer cell lines; [1]): 56.67%
- Growth percent, Mean (60 cancer cell lines; [2]): 86.33%
- Growth percent, Range (60 cancer cell lines; [3]): 101.96%
